Experiments:
Type in all cases: biochemical
MMP-7 = target: T1, MMP-7 (Homo sapiens, UniProt P09237); assay: In vitro MMP-7 inhibition test
T1 construct: purchased R&D Systems 907-MP
T1 sequence (P09237 95-267): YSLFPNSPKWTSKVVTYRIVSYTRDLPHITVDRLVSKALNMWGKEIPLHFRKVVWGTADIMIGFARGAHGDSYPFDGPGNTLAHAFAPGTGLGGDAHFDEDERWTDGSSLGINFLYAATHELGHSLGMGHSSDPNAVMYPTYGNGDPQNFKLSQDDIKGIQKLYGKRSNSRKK
Text: (§1) The MMP-mediated amidolytic cleavage of a suitable peptide substrate leads to an increase in fluorescent light here too. The signal intensity of the fluorescent light is directly proportional to the enzyme activity. The active concentration of a test compound at which half the enzyme is inhibited (50% signal intensity of the fluorescent light) is reported as the IC50 value.
Recombinant MMP-7 (from R&D Systems, 907-MP) is chemically activated in accordance with the manufacturer's instructions using APMA. 1 μl of the test compound to be analysed (as a solution in DMSO, suitable concentrations, for example, 1 nM to 30 μM) is pipetted into 24 μl of activated enzyme (final concentration, for example, 0.5 nM) in reaction buffer (50 mM Tris/HCl pH 7.5, 10 mM CaCl2, 150 mM NaCl, 0.05% Brij®-35) in a white 384-hole microtiter plate (MTP). The enzymatic reaction is started by adding the intramolecularly quenched Mca-Pro-Leu-Gly-Leu-Dpa(Dnp)-Ala-Arg-NH2 substrate (final concentration, for example, 10 μM; R&D Systems, ES-001), so as to result in a total test volume of […] The course of the MMP-7 reaction is measured by measuring the fluorescence intensity (excitation 320 nm, emission 410 nm) over a suitable period of time (for example over 120 min at a temperature of 32° C.).

MMP-8 = target: T2, MMP-8 (Homo sapiens, UniProt P22894); assay: In vitro MMP-8 inhibition test
T2 construct: purchased R&D Systems 908-MP
T2 sequence (P22894 101-467): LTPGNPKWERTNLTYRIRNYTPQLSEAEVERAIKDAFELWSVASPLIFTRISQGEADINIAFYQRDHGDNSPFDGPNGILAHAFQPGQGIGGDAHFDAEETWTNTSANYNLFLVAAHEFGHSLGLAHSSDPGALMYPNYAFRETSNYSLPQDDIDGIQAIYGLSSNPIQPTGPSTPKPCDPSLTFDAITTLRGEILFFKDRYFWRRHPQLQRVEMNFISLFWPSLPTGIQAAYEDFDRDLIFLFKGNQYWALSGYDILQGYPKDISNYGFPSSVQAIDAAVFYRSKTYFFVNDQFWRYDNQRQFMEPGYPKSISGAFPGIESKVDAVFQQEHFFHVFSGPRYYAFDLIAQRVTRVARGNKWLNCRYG
Text: as §1
Recombinant MMP-8 (from R&D Systems, 908-MP) is chemically activated in accordance with the manufacturer's instructions using APMA. 1 μl of the test compound to be analysed (as a solution in DMSO, suitable concentrations, for example, 1 nM to 30 μM) is pipetted into 24 μl of activated enzyme (final concentration, for example, 0.5 nM) in reaction buffer (50 mM Tris/HCl pH 7.5, 10 mM CaCl2, 150 mM NaCl, 0.05% Brij®-35) in a white 384-hole microtiter plate (MTP). The enzymatic reaction is started by adding the intramolecularly quenched Mca-Pro-Leu-Gly-Leu-Dpa(Dnp)-Ala-Arg-NH2 substrate (final concentration, for example, 10 μM; R&D Systems, ES-001), so as to result in a total test volume of 50 μl. The course of the MMP-8 reaction is measured by measuring the fluorescence intensity (excitation 320 nm, emission 410 nm) over a suitable period of time (for example over 120 min at a temperature of 32° C.).

MMP-14 = target: T3, MMP-14 (Homo sapiens, UniProt P50281); assay: In vitro MMP-14 inhibition test
T3 construct: purchased R&D Systems 918-MP
Text: as §1
Recombinant MMP-14 (from R&D Systems, 918-MP) is enzymatically activated in accordance with the manufacturer's instructions using recombinant furin (from R&D Systems, 1503-SE). 1 μl of the test compound to be analysed (as a solution in DMSO, suitable concentrations e.g. 1 nM to 30 μM) is pipetted into 24 μl of activated enzyme (final concentration e.g. 0.5 nM) in reaction buffer (50 mM Tris/HCl pH 7.5, 10 mM CaCl2, 150 mM NaCl, 0.05% Brij®-35) in a white 384-hole microtiter plate (MTP). The enzymatic reaction is started by adding the intramolecularly quenched Mca-Lys-Pro-Leu-Gly-Leu-Dpa(Dnp)-Ala-Arg-NH2 substrate (final concentration, for example, 5 μM; R&D Systems, ES-010), so as to result in a total test volume of 50 The course of the MMP-14 reaction is measured by measuring the fluorescence intensity (excitation 320 nm, emission 410 nm) over a suitable period of time (for example over 120 min at a temperature of 32° C.).

[1] = target: T4, human macrophage elastase (HME/hMMP-12) (Homo sapiens, UniProt P39900); assay: In vitro HME inhibition test (standard or high-sensitivity); details: in some cases mean values
T4 construct: 0.5 nM HME; purchased R&D Systems 917-MP
T4 sequence (P39900 106-470): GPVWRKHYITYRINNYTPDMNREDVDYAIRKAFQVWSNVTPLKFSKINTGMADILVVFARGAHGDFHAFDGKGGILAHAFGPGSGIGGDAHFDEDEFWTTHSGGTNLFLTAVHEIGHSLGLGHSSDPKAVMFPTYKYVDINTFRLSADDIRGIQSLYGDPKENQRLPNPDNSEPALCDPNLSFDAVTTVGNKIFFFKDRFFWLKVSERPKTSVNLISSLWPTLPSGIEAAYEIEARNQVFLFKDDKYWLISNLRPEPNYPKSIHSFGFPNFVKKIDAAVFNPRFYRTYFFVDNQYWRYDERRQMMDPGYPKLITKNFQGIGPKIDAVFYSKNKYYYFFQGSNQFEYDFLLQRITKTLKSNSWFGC
Procedure, shortened: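 Fluorogenic assay: 0.5 nM autoactivated HME with 5 µM Mca-Pro-Leu-Gly-Leu-Glu-Glu-Ala-Dap(Dnp)-NH2 in HEPES pH 7.4 buffer (NaCl, CaCl2, ZnCl2, EDTA, Brij), 2 h at 37 °C; ex 323/em 393 nm. IC50 from fluorescence versus concentration. High-sensitivity format: ~0.05 nM enzyme, ~16 h incubation.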

| IC50 (MMP-7) [nM] | IC50 (MMP-8) [nM] | IC50 (MMP-14) [nM] | IC50 [1] [nM] | Structure (SMILES) |
| --- | --- | --- | --- | --- |
| 330 | 64 | 210 | 0.1 | Cc1cccc(COc2ccc(C(=O)[C@@H]3CC[C@H](Cn4nnc5ccc(C)cc5c4=O)[C@H]3C(=O)O)cc2)c1 (single isomer, unassigned) [Example 98, (+)-(1RS,2RS,5SR)-2-{4-[(3-Methylbenzyl)oxy]benzoyl}-5-[(6-methyl-4-oxo-1,2,3-benzotriazin-3(4H)-yl)methyl]cyclopentanecarboxylic acid] |
| 79 | 9.1 | 400 | 0.012 | COC(=O)Nc1cccc(COc2ccc(C(=O)[C@@H]3CC[C@H](Cn4nnc5ccc(C(F)(F)F)cc5c4=O)[C@H]3C(=O)O)cc2)c1 (stereo in doubt) [Example 31, (+)-(1RS,2RS,5SR)-2-[4-({3-[(Methoxycarbonyl)amino]benzyl}oxy)benzoyl]-5-{[4-oxo-6-(trifluoromethyl)-1,2,3-benzotriazin-3(4H)-yl]methyl}cyclopentanecarboxylic acid] |
| 68 | 1.6 | 110 | 0.01 | O=C(O)[C@@H]1[C@@H](Cn2nnc3ccc(C(F)(F)F)cc3c2=O)CC[C@H]1C(=O)c1ccc(OCC2CCCCC2)cc1 (single isomer, unassigned) [Example 41, (+)-(1RS,2RS,5SR)-2-[4-(Cyclohexylmethoxy)benzoyl]-5-{[4-oxo-6-(trifluoromethyl)-1,2,3-benzotriazin-3(4H)-yl]methyl}cyclopentanecarboxylic acid] |
| 1000 | 43 | 720 | 0.08 | Cc1ccc2nnn(C[C@@H]3CC[C@H](C(=O)c4ccc(OCc5cccc(C(F)(F)F)c5)cc4)[C@H]3C(=O)O)c(=O)c2c1 (racemic) [Example 100, (+/−)-(1RS,2SR,5RS)-2-[(6-Methyl-4-oxo-1,2,3-benzotriazin-3(4H)-yl)methyl]-5-(4-{[3-(trifluoromethyl)benzyl]oxy}benzoyl)cyclopentanecarboxylic acid] |
| 500 | 56 | 1200 | 0.032 | O=C(O)[C@@H]1[C@@H](Cn2nnc3ccc(C(F)(F)F)cc3c2=O)CC[C@H]1C(=O)c1ccc(OCc2cccc(Cl)c2)cc1 (single isomer, unassigned) [Example 23, (+)-(1RS,2RS,5SR)-2-{4-[(3-Chlorobenzyl)oxy]benzoyl}-5-{[4-oxo-6-(trifluoromethyl)-1,2,3-benzotriazin-3(4H)-yl]methyl}cyclopentanecarboxylic acid] |

The remaining lines, values behind:

| Structure (SMILES) | IC50 (MMP-7) [nM] | IC50 (MMP-8) [nM] | IC50 (MMP-14) [nM] | IC50 [1] [nM] |
| --- | --- | --- | --- | --- |
| O=C(O)[C@H]1[C@H](Cn2nnc3ccccc3c2=O)CC[C@@H]1C(=O)c1ccc(OCc2ccc(F)cc2)cc1 (racemic) [Example 1, (+/−)-(1RS,2RS,5SR)-2-{4-[(4-Fluorobenzyl)oxy]benzoyl}-5-[(4-oxo-1,2,3-benzotriazin-3(4H)-yl)methyl]cyclopentanecarboxylic acid] | 1100 | 2.5 | 24 | 0.052 |
| O=C(O)[C@H]1[C@H](Cn2nnc3ccc(C(F)(F)F)cc3c2=O)CC[C@@H]1C(=O)c1ccc(OCc2ccccc2)cc1 (racemic) [Example 11, (+/−)-(1RS,2RS,5SR)-2-[4-(Benzyloxy)benzoyl]-5-{[4-oxo-6-(trifluoromethyl)-1,2,3-benzotriazin-3(4H)-yl]methyl}cyclopentanecarboxylic acid] | 87 | 3.2 | 150 | 0.014 |
| O=C(O)[C@H]1[C@H](Cn2nnc3ccc(C(F)(F)F)cc3c2=O)CC[C@@H]1C(=O)c1ccc(SCc2ccc(Cl)c(Cl)c2)cc1 (racemic) [Example 79, (+/−)-(1RS,2RS,5SR)-2-{4-[(3,4-Dichlorobenzyl)sulphanyl]benzoyl}-5-{[4-oxo-6-(trifluoromethyl)-1,2,3-benzotriazin-3(4H)-yl]methyl}cyclopentanecarboxylic acid] | 1300 | 280 | 8700 | 0.25 |
| O=C(O)[C@@H]1[C@@H](Cn2nnc3ccc(C(F)(F)F)cc3c2=O)CC[C@H]1C(=O)c1ccc(OCc2ccc(F)cc2)cc1 (single isomer, unassigned) [Example 13, (+)-(1RS,2RS,5SR)-2-{4-[(4-Fluorobenzyl)oxy]benzoyl}-5-{[4-oxo-6-(trifluoromethyl)-1,2,3-benzotriazin-3(4H)-yl]methyl}cyclopentanecarboxylic acid] | 120 | 0.88 | 150 | 0.018 |
| CCCCCOc1ccc(C(=O)[C@H]2CC[C@@H](Cn3nnc4ccc(C)cc4c3=O)[C@@H]2C(=O)O)cc1 (racemic) [Example 123, (+/−)-(1RS,2SR,5RS)-2-[(6-Methyl-4-oxo-1,2,3-benzotriazin-3(4H)-yl)methyl]-5-[4-(pentyloxy)benzoyl]cyclopentanecarboxylic acid] | 390 | 11 | 490 | 0.088 |
| O=C(O)[C@H]1[C@H](Cn2nnc3ccccc3c2=O)CC[C@@H]1C(=O)c1ccc(OCc2ccc(Cl)c(Cl)c2)cc1 (racemic) [Example 3, (+/−)-(1RS,2RS,5SR)-2-{4-[(3,4-Dichlorobenzyl)oxy]benzoyl}-5-[(4-oxo-1,2,3-benzotriazin-3(4H)-yl)methyl]cyclopentanecarboxylic acid] | 4900 | 260 | 700 | 0.055 |
| Cc1ccc2nnn(C[C@H]3CC[C@@H](C(=O)c4ccc(OCC5CCCCC5)cc4)[C@@H]3C(=O)O)c(=O)c2c1 (single isomer, unassigned) [Example 117, (+)-(1RS,2RS,5SR)-2-[4-(Cyclohexylmethoxy)benzoyl]-5-[(6-methyl-4-oxo-1,2,3-benzotriazin-3(4H)-yl)methyl]cyclopentanecarboxylic acid] | 100 | 4 | 88 | 0.014 |
| Cc1cccc(COc2ccc(C(=O)[C@H]3CC[C@@H](Cn4nnc5ccc(C(F)(F)F)cc5c4=O)[C@@H]3C(=O)O)cc2)c1 (racemic) [Example 15, (+/−)-(1RS,2RS,5SR)-2-{4-[(3-Methylbenzyl)oxy]benzoyl}-5-{[4-oxo-6-(trifluoromethyl)-1,2,3-benzotriazin-3(4H)-yl]methyl}cyclopentanecarboxylic acid] | 120 | 26 | 180 | 0.05 |
| O=C(O)[C@@H]1[C@@H](Cn2nnc3ccc(C(F)(F)F)cc3c2=O)CC[C@H]1C(=O)c1ccc(OCCC2CCCC2)cc1 (single isomer, unassigned) [Example 55, (+)-(1RS,2RS,5SR)-2-[4-(2-Cyclopentylethoxy)benzoyl]-5-{[4-oxo-6-(trifluoromethyl)-1,2,3-benzotriazin-3(4H)-yl]methyl}cyclopentanecarboxylic acid] | 260 | 30 | 2400 | 0.037 |

From US20170022171A1, “2,5-DISUBSTITUTED CYCLOPENTANECARBOXYLIC ACIDS AND THEIR USE” (Bayer Pharma Aktiengesellschaft, priority 2014, published 2017)
